The experiment deals with T1, PARP (Homo sapiens, UniProt P09874).
T1 construct: endogenous in cells; host or cells: A549 human alveolar epithelial adenocarcinoma cells
As to the kind of experiment: PARP activity in hydrogen peroxide-stimulated A549 cells, whole-cell based assay (3H-NAD+ incorporation). The note with it: 15 min pretreatment (10 nM-300 nM), hydrogen peroxide-induced PARP activation, from dose-response curve. The method, then:
Human alveolar epithelial cells (A549), an adenocarcinoma cell line with the alveolar type 2 phenotype were cultured in […] medium supplemented with 10% fetal bovine serum. Cells were grown to 80% confluence in 12-well plates and pretreated with various concentrations (10 nM-300 nM) of an Indenoisoquinolinone Analog for 15 minutes. Hydrogen peroxide, a prototypical oxidant that induces DNA single strand breakage, was used to induce PARP activation. Hydrogen peroxide was diluted in culture media and added to the cells in a bolus of 20 μl. After 20 minutes of incubation, the medium was aspirated and 0.5 mL of assay buffer (56 mM HEPES pH 7.5, 28 mM KCl, 28 mM NaCl, 2 mM MgCl2, 0.01% w/v digitonin and 0.5 μCi/ml 3H-NAD^+) was added to cells. Following incubation in the assay buffer (15 minutes at 37° C.), PARP activity was measured. Cells were scraped from the plate, transferred to a 1.5 mL eppendorf tube and then added 200 μl of ice cold 50% w/v TCA. […] The contents of the tubes were added to 6.5 mL ScintiSafe Plus scintillation liquid (Fisher Scientific) and radioactivity was determined using a liquid scintillation counter (Wallac, Gaithersburg, Md.). […] EC50 values were determined from a dose-response curve. IC50 values were determined using a commercially available in vitro PARP-1 inhibition assay kit (Trevigen, Gaithersburg, Md., USA).

Data on one compound can be found in patent publication US7652028B2, “Indenoisoquinolinone analogs and methods of use thereof” (Inotek Pharmaceuticals Corporation, priority 2005, dated 2010).

T1 sequence (P09874 whole entry): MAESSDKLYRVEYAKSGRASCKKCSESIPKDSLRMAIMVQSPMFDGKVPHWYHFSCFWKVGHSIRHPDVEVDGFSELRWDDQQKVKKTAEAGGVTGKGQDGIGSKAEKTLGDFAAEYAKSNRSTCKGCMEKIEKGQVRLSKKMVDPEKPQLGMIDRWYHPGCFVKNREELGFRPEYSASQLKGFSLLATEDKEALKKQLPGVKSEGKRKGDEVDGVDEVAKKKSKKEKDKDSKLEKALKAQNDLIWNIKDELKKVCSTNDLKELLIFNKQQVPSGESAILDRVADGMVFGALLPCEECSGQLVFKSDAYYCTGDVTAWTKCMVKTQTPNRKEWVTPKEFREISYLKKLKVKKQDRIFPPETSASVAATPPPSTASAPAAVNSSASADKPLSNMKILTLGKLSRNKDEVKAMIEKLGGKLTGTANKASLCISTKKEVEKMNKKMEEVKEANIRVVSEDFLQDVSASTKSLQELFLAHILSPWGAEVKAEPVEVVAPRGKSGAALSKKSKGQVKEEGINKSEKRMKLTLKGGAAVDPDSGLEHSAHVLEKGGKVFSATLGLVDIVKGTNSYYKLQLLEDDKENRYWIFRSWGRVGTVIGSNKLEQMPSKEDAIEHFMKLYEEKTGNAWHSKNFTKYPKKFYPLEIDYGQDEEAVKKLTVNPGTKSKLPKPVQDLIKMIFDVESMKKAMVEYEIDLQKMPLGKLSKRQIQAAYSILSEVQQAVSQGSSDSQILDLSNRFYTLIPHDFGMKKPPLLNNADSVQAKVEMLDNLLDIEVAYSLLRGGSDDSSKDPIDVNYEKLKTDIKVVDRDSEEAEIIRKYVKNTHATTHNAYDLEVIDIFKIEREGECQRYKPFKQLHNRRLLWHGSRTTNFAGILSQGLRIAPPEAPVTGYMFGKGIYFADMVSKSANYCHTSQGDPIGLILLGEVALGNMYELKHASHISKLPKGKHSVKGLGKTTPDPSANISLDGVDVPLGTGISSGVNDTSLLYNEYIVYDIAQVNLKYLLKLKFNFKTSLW

As to `O=c1[nH]c2c(c3ccccc13)Cc1c(CO)cccc1-2` [(I)(25), 10-hydroxymethyl-5,6-dihydro-5-oxo-11-H-indeno[1,2-c]isoquinoline], the EC50 (in general, the concentration giving half of the maximal effect) amounted to 290 nM.
